Common to all, as to experiment: HLA class II peptide binding, inhibition of radiolabeled peptide binding to purified MHC
The target in test [1] is T1, HLA-DRB1*01:01 (Homo sapiens, UniProt P01903+P01911, A100R/D57E/F55L/F60I/F76Y/I96L/L162R/M171V/P40L/Q125E/R42F/V115G/Y59C).
T1 construct: EBV transformed homozygous cell lines were used as sources of MHC molecules; endogenous in cells; host or cells: EBV transformed homozygous cell lines
As to conditions: read-out: IC50 DRB1*01:01.

The target of test [2] is T2, HLA-DRB1*04:01 (Homo sapiens, UniProt P01903+P01911, A100K/A169T/F76Y/I96L/K127E/L162R/M171V/N62H/P40V/Q125Y/R42H/S133A/S149N/S66Y/V115G/V209L/W38E).
T2 construct: EBV transformed homozygous cell lines were used as sources of MHC molecules; endogenous in cells; host or cells: EBV transformed homozygous cell lines
As to conditions: read-out: IC50 DRB1*04:01.

The target of test [3] is DRB1*04:04 (Homo sapiens, UniProt P01903+P01911, A100R/A169T/F76Y/I96L/K127E/L162R/M171V/N62H/P40V/Q125Y/R42H/S133A/S149N/S66Y/V209L/W38E). As to conditions: SE+, competition with radiolabeled peptide, two-day incubation, three or more independent experiments.
In test [4] the target is DRB1*04:05 (Homo sapiens, UniProt P01903+P01911, A100R/A169T/D86S/F76Y/I96L/K127E/L162R/M171V/N62H/P40V/Q125Y/R42H/S133A/S149N/S66Y/V115G/V209L/W38E). As to conditions: SE+, competition with radiolabeled peptide, two-day incubation, three or more independent experiments.
The target of test [5] is DRB1*10:01 (Homo sapiens, UniProt P01903+P01911, A100R/A169T/D57E/F55L/F60V/F69Y/F76Y/I96L/L162R/M171V/P40V/Q260P/Q39E/Q99R/R195Q/R42F/S149N/S66Y/T210M/V115G/V67A/W38E/Y59R/Y61H). As to conditions: SE+, competition with radiolabeled peptide, two-day incubation, three or more independent experiments.
The target of test [6] is DRB1*04:02 (Homo sapiens, UniProt P01903+P01911, A100E/A169T/F76Y/K127E/L162R/M171V/N62H/P40V/Q125Y/Q99D/R42H/S133A/S149N/S66Y/V209L/W38E). As to conditions: SE-, competition with radiolabeled peptide, two-day incubation, three or more independent experiments.
The target in test [7] is DRB1*11:01 (Homo sapiens, UniProt P01903+P01911, A100R/A169T/A87E/I96F/K41T/L162R/M171V/P40S/Q125H/Q178H/Q39Y/Q99D/R42S/S66Y/T262R/V115G/W38E). As to conditions: SE-, competition with radiolabeled peptide, two-day incubation, three or more independent experiments.
The target of test [8] is DRB1*12:01 (Homo sapiens, UniProt P01903+P01911, A100R/A169T/D57E/D86V/F55L/H45Y/K41T/L162R/M171V/P40S/Q125H/Q178H/Q39Y/Q99D/R42G/S66L/T262R/V114A/V67L/W38E/Y59H/Y61H/Y89S). As to conditions: SE-, competition with radiolabeled peptide, two-day incubation, three or more independent experiments.
For test [9], the target named is DRB1*13:02 (Homo sapiens, UniProt P01903+P01911, A100E/A169T/K41T/L162R/M171V/P40S/Q125H/Q178H/Q39Y/Q99D/R42S/S66N/T262R/V115G/W38E/Y61H). As to conditions: SE-, competition with radiolabeled peptide, two-day incubation, three or more independent experiments.
The target in test [10] is T3, DRB1*15:01 (Homo sapiens, UniProt P01903+P01911).
T3 construct: EBV transformed homozygous cell lines were used as sources of MHC molecules; endogenous in cells; host or cells: EBV transformed homozygous cell lines
As to conditions: SE-, competition with radiolabeled peptide, two-day incubation, three or more independent experiments.

The target of test [11] is DRB1*16:02 (Homo sapiens, UniProt P01903+P01911, A100R/F76Y/I96L/Q99D/V115G). As to conditions: SE-, competition with radiolabeled peptide, two-day incubation, three or more independent experiments.
The target in test [12] is DRB1*03:01 (Homo sapiens, UniProt P01903+P01911, A100K/A102G/A103R/A169T/F55Y/I96L/K41T/L162R/M171V/P40S/Q125H/Q178H/Q39Y/R42S/S66N/T106N/T262R/W38E/Y61H). As to conditions: Other DR, competition with radiolabeled peptide, two-day incubation, three or more independent experiments.
Test [13] addresses DRB1*07:01 (Homo sapiens, UniProt P01903+P01911, A100R/A102G/A103Q/D57E/D86V/E43K/F76Y/K127E/L162R/M171V/P40G/Q125H/Q99D/R33Q/R42Y/R54Q/S133A/S66F/T210M/V115G/Y107V/Y59L/Y89S). As to conditions: Other DR, competition with radiolabeled peptide, two-day incubation, three or more independent experiments.
Test [14] addresses DRB1*08:02 (Homo sapiens, UniProt P01903+P01911, A100R/A103L/A169T/F76Y/H45Y/I96F/K41T/L162R/M171V/P40S/Q125H/Q178H/Q39Y/Q99D/R218S/R42G/S66Y/V115G/W38E). As to conditions: Other DR, competition with radiolabeled peptide, two-day incubation, three or more independent experiments.
For test [15], the target named is DRB1*09:01 (Homo sapiens, UniProt P01903+P01911, A100R/A103E/D57H/D86V/F55Y/F60I/F76Y/I96F/K127E/L162R/M171V/P40D/Q125H/Q99R/R33Q/R42F/S133A/S66N/T210M/V115G/W38K/Y107V/Y59G/Y89S). As to conditions: Other DR, competition with radiolabeled peptide, two-day incubation, three or more independent experiments.
In test [16] the target is T4, DRB3*01:01 (Homo sapiens, UniProt P01903+P79483).
T4 construct: EBV transformed homozygous cell lines were used as sources of MHC molecules; endogenous in cells; host or cells: EBV transformed homozygous cell lines
As to conditions: Other DR, competition with radiolabeled peptide, two-day incubation, three or more independent experiments.

Test [17] concerns the target DRB3*02:02 (Homo sapiens, UniProt P01903+P79483, A212P/D57E/F66Y/L67A/R103Q/R218S/R40L/S89Y/T80R/V86D/Y55F/Y59H). As to conditions: Other DR, competition with radiolabeled peptide, two-day incubation, three or more independent experiments.
Test [18] concerns the target T5, DRB4*01:01 (Homo sapiens, UniProt P01903+P13762, G164S).
T5 construct: EBV transformed homozygous cell lines were used as sources of MHC molecules; endogenous in cells; host or cells: EBV transformed homozygous cell lines
As to conditions: Other DR, competition with radiolabeled peptide, two-day incubation, three or more independent experiments.

The target in test [19] is T6, DRB5*01:01 (Homo sapiens, UniProt P01903+Q30154).
T6 construct: EBV transformed homozygous cell lines were used as sources of MHC molecules; endogenous in cells; host or cells: EBV transformed homozygous cell lines
As to conditions: Other DR, competition with radiolabeled peptide, two-day incubation, three or more independent experiments.

Test [20] deals with T7, DPB1*04:01 (Homo sapiens, UniProt P04440+P20036).
T7 construct: EBV transformed homozygous cell lines were used as sources of MHC molecules; endogenous in cells; host or cells: EBV transformed homozygous cell lines
T7 sequence (P04440 30-258): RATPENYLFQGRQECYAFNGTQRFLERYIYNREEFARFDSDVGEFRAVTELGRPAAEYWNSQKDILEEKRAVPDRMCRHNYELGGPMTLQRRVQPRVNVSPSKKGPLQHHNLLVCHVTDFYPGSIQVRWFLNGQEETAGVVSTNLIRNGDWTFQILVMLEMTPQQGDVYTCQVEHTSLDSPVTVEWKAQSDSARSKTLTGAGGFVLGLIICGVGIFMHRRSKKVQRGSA
T7 sequence (P20036 29-260 partner): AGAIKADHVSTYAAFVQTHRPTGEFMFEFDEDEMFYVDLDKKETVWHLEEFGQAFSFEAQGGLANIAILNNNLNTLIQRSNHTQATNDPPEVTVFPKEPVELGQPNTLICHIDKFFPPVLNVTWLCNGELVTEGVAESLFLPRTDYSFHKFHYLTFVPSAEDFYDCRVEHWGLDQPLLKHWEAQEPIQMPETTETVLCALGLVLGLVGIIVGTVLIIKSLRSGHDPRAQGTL
As to conditions: DP; purified MHC, competition with radiolabeled peptide, two-day incubation, three or more independent experiments.

For test [21], the target named is DQB1*03:01 (Homo sapiens, UniProt P01909+P01920). As to conditions: DQ, competition with radiolabeled peptide, two-day incubation, three or more independent experiments.
Chain of DQB1*03:01 (P01920 33-261, other chains not shown): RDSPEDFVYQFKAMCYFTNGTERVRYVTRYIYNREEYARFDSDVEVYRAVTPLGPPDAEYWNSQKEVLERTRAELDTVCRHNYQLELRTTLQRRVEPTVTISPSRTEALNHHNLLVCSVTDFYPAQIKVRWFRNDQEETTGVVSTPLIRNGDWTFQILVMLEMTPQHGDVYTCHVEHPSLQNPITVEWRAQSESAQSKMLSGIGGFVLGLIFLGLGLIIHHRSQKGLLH

Square brackets hold non-standard residues; d marks the D form. Ends that are not written are not given here. Peptide text beside a SMILES is read from it. Cit = NC(=O)NCCC[C@H](N)C(=O)O Some results are limits rather than exact numbers.
Throughout, for IC50 DRB1*01:01: competition with radiolabeled peptide (0.1–1 nM).
Throughout, for IC50 DRB1*04:01: competition with radiolabeled peptide (0.1–1 nM).

For `CC(C)C[C@H](NC(=O)[C@H](CC(C)C)NC(=O)[C@@H](NC(=O)[C@@H](N)C(C)C)C(C)C)C(=O)N[C@H](C(=O)N[C@@H](C)C(=O)N[C@H](C(=O)N[C@@H](CCC(=O)O)C(=O)NCC(=O)N[C@@H](CCCNC(N)=O)C(=O)N[C@H](C(=O)N[C@@H](CCCNC(=N)N)C(=O)N[C@H](C(=O)N[C@@H](CC(N)=O)C(=O)N[C@@H](CO)C(=O)N[C@@H](C)C(=O)N[C@@H](Cc1ccc(O)cc1)C(=O)N[C@@H](CCC(N)=O)C(=O)N[C@@H](CC(=O)O)C(=O)N[C@@H](CCCCN)C(=O)O)C(C)C)C(C)C)[C@@H](C)O)C(C)C` [Aggrecan 84–103 Cit] (H-VVLLVATEG[Cit]VRVNSAYQDK-OH), the IC50 in test [1] was determined as 3860 nM; in test [2], 827 nM; in test [3] it was 854 nM; in test [4] it was 47 nM; in test [5], 2420 nM; in [6], 4260 nM. The IC50 in [7] amounted to 29700 nM; in [8] it was 11000 nM; in test [9], 552 nM; in test [10], 7600 nM; in test [11], 22800 nM; in test [12], 11100 nM. In addition, the IC50 is 8470 nM in test [13]; 17000 nM in test [14]; 28500 nM in [15]; 18900 nM in test [16]; 51 nM in test [17]; 2340 nM in test [18]. In addition, the figures for the 50% inhibitory concentration (IC50) in test [19], in test [20] and in test [21] were 740 nM, 16200 nM and 382 nM, respectively.
As to “LQYMRADQAAGGLR [Collagen II 1236–1249 WT]”, the IC50 stood at 81 nM in test [1]; 9.7 nM in test [2]; 102 nM in test [3]; 1770 nM in test [4]; 375 nM in test [5]; 118 nM in test [6]. Further, the half-inhibitory concentration (IC50) is 9860 nM in test [7]; above 30000 nM in [8]; 3920 nM in test [9]; 1460 nM in test [10]; 23100 nM in [11]; 159 nM in test [12]. Moreover, the IC50 amounted to 29600 nM in test [13]; 1040 nM in test [14]; 315 nM in [15]; 68 nM in test [16]; 262 nM in test [17]; 80 nM in test [18]. The IC50 in test [19] is 8880 nM; in [20], above 30000 nM; in test [21], 12800 nM.
Take “VVLLVATEGRVRVNSAYQDK [Aggrecan 84–103 WT]”: the IC50 in test [1] is 155 nM; in test [2], 713 nM; in test [3], 565 nM; in test [4], 183 nM; in test [5] it was 643 nM; in [6], 501 nM. In addition, the IC50 came out at 520 nM in test [7]; 1050 nM in test [8]; 268 nM in test [9]; 1010 nM in test [10]; 20500 nM in [11]; 530 nM in [12]. Further, the IC50 was 3030 nM in [13]; 3960 nM in [14]; 730 nM in test [15]; 8460 nM in test [16]; 245 nM in test [17]; 955 nM in [18]. For the same compound, the figures for the IC50 in [19], in test [20] and in test [21] were 16 nM, 26200 nM and 229 nM, respectively.
As to `CSCC[C@H](NC(=O)[C@H](Cc1ccc(O)cc1)NC(=O)[C@H](CCC(N)=O)NC(=O)[C@@H](N)CC(C)C)C(=O)N[C@@H](CCCNC(N)=O)C(=O)N[C@@H](C)C(=O)N[C@@H](CC(=O)O)C(=O)N[C@@H](CCC(N)=O)C(=O)N[C@@H](C)C(=O)N[C@@H](C)C(=O)NCC(=O)NCC(=O)N[C@@H](CC(C)C)C(=O)N[C@@H](CCCNC(=N)N)C(=O)O` [Collagen II 1236–1249 Cit] (H-LQYM[Cit]ADQAAGGLR-OH), the IC50 in test [1] was found to be 232 nM; in test [2], 13 nM; in test [3] it was 216 nM; in test [4], 7340 nM; in test [5] it was 432 nM; in test [6] it was 211 nM. Besides, the IC50 in [7] was above 30000 nM; in test [8] it was above 30000 nM; in test [9], 8290 nM; in test [10], 15200 nM; in test [11] it was above 30000 nM; in [12], 72 nM. Also, the IC50 is above 30000 nM in test [13]; 2150 nM in test [14]; 276 nM in [15]; 63 nM in [16]; 481 nM in [17]; 7.3 nM in test [18]. Moreover, the IC50 in [19] was 10200 nM; in [20] it was above 30000 nM; in [21], 4120 nM.

One may read the IC50 as the concentration at which inhibition is half-maximal.

Values taken from paper PMC5421785, “Citrullination only infrequently impacts peptide binding to HLA class II MHC” (PLoS ONE, 2017).
